Measurements: US7235366B1 (priority 1993, dated 2007)

Assays:
cloned mouse κ receptor = target: T1, cloned mouse κ receptor (Mus musculus, UniProt P33534); assay: biochemical; type: binding
T1 construct: expressed in transfected cells

cloned mouse δ receptor = target: T2, cloned mouse δ receptor (Mus musculus, UniProt P32300); assay: biochemical; type: binding
T2 construct: expressed in transfected cells

cloned rat μ receptor = target: T3, cloned rat μ receptor (Rattus norvegicus, UniProt P33535); assay: biochemical; type: binding
T3 construct: expressed in transfected cells; host or cells: COS-7 (transient)
T3 sequence (P33535 whole entry): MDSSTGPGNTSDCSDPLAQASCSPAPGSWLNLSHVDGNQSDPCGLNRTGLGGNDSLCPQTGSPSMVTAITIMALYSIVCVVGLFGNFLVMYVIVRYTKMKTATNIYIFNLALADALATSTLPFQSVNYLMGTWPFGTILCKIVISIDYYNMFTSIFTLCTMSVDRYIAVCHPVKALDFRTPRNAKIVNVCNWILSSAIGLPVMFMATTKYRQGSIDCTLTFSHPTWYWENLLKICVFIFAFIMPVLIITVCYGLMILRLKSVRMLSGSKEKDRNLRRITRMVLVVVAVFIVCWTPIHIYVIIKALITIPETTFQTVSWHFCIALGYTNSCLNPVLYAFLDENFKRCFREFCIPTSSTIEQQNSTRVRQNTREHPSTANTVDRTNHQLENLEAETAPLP

[1] = target: T4, wild-type mouse delta opioid receptor (Mus musculus, UniProt P32300); assay: biochemical; type: binding
T4 construct: expressed in transfected cells; host or cells: COS-7 (transient, pCMV6c)
T4 sequence (P32300 whole entry): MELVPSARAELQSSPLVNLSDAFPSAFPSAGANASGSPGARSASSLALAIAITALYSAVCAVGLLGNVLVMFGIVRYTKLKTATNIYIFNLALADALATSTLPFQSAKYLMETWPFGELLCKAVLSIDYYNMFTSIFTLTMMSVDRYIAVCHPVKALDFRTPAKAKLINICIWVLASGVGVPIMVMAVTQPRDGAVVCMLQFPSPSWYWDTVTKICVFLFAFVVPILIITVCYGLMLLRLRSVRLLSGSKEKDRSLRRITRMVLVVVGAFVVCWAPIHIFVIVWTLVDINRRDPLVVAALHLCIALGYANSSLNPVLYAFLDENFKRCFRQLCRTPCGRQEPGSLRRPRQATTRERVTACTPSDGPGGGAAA

[2] = target: T5, D128N mutant mouse delta opioid receptor (Mus musculus, UniProt P32300, D128N); assay: biochemical; type: binding
T5 construct: expressed in transfected cells; host or cells: COS-7 (transient, pCMV6c)
T5 sequence (P32300 whole entry D128N): as the sequence (P32300 whole entry) above, with D128N counted along it

[3] = target: T6, H278N mutant mouse delta opioid receptor (Mus musculus, UniProt P32300, H278N); assay: biochemical; type: binding
T6 construct: expressed in transfected cells; host or cells: COS-7 (transient, pCMV6c)
T6 sequence (P32300 whole entry H278N): as the sequence (P32300 whole entry) above, with H278N counted along it

[4] = target: T4, wild-type mouse delta opioid receptor; assay: Forskolin-stimulated cAMP accumulation, COS-7 cells, wild-type delta receptor; type: cell-based
Protocol: (§1) Briefly, COS-7 cells were subcultured in 12-well culture plates. The cells were transfected 48 hrs. prior to the cAMP experiments. Culture medium was removed from the wells and replaced with 500 μl of fresh medium containing 0.5 mM isobutylmethylxanthine (IBMX). Cells were incubated for 20 min at 37° C. Medium was removed and replaced with fresh medium containing 0.5 mM IBMX, with or without 10 μM forskolin and various opioid agonists. The cells were incubated for 30 min at 37° C. Medium was removed and cells sonicated in the wells in 500 μl of 1NCl. The HCl was evaporated off in a Speed-Vac and the cAMP analyzed using a radioimmunoassay kit from NEN/Dupont (Wilmington, Del.).

[5] = target: T5, D128N mutant mouse delta opioid receptor; assay: Forskolin-stimulated cAMP accumulation, COS-7 cells, D128N mutant; type: cell-based
Protocol: as §1

[6] = target: T6, H278N mutant mouse delta opioid receptor; assay: Forskolin-stimulated cAMP accumulation, COS-7 cells, H278N mutant; type: cell-based
Protocol: as §1

MOP2 = target: T7, MOP2 (Mus musculus, UniProt P35377); type: cell-based
T7 construct: expressed in transfected cells; host or cells: COS-7 (transient)
T7 sequence (P35377 whole entry): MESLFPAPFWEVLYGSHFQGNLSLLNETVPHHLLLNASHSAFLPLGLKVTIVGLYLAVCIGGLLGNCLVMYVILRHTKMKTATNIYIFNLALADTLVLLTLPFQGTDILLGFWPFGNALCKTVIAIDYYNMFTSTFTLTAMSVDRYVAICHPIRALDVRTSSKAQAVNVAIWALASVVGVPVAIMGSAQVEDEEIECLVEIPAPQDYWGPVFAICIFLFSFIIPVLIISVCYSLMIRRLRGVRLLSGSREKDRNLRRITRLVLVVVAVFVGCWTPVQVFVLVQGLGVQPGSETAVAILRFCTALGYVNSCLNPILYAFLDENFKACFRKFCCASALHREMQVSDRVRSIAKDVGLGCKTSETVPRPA

[7] = target: T8, mouse delta opioid receptor aspartate 95 to asparagine mutant (Mus musculus, UniProt P32300, D95N); assay: Binding to delta receptor mutant with aspartate 95 converted to asparagine, COS-7 cells
T8 construct: expressed in transfected cells; host or cells: COS-7
T8 sequence (P32300 whole entry D95N): as the sequence (P32300 whole entry) above, with D95N counted along it

[8] = target: κ1-78/δ70-372 chimeric receptor (Mus musculus, UniProt P32300+P33534, A193I/A281G/D128E/D204G/D206V/DEL208-209/DEL216-217/DEL300-312/E203D/E218S/E297A/F225V/F314L/G197A/G198V/I133A/I135L/I177L/I191V/I194M/I237V/I243T/I250L/I284V/I285V/I294L/I85V/INS221Y/INS293VIVWTLVDINRRDP/K200Q/K254R/K274R/L173A/L184V/L196M/L224T/L275M/L295V/M112L/M226T/M90L/N122E/N268S/R263K/S123T/S188G/S192P/S211M/T110S/T247G/T288A/T321A/V108A/V118K/V129L/V201P/V205A/V232L/V239I/V282A/V83G/Y219P/Y313H); assay: biochemical
Chain of κ1-78/δ70-372 chimeric receptor (P33534+P32300 fused with the stated changes): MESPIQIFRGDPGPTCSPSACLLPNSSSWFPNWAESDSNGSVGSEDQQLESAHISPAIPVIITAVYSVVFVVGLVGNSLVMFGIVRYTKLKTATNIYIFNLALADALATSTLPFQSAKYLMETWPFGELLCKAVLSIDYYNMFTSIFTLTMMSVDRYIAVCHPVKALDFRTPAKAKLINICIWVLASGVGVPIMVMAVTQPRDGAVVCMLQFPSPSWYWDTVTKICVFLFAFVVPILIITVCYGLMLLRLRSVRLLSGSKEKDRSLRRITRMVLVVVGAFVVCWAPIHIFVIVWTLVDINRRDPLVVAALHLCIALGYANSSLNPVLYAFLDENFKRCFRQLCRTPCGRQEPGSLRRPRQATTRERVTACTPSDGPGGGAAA

T1 sequence (P33534 whole entry): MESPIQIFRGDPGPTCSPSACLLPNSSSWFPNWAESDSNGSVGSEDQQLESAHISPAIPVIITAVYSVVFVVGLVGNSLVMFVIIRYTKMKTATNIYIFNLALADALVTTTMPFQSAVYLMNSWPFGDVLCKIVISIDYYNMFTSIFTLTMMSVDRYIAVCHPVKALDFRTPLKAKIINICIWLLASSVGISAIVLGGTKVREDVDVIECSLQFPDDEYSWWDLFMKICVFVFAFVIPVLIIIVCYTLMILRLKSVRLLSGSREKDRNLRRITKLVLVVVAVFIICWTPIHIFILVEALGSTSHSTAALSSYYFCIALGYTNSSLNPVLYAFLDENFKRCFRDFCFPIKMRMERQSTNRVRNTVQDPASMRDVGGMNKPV
T2 sequence (P32300 whole entry): as the sequence (P32300 whole entry) above

SMILES	Ki (cloned mouse κ receptor)	Ki (cloned mouse δ receptor)	Ki (cloned rat μ receptor)	Ki [1]	Ki [2]	Ki [3]	EC50 [4]	EC50 [5]	EC50 [6]	Effect on forskolin-stimulated cAMP formation, MOP2 (MOP2)	Affinity of aspartate 95 mutant and wild-type delta receptors compared [7]	IC50 [8]
CCC12CCN(CC3(O)CC3)C(Cc3ccc(O)cc31)C2(C)C (racemic) [Bremazocine]	0.089 nM	2.3 nM	0.75 nM	58 nM	2690 nM	1.7 nM	7.4 nM	80 nM	1.5 nM	no effect	similar	
Oc1ccc2c3c1O[C@H]1c4[nH]c5ccccc5c4C[C@@]4(O)[C@@H](C2)N(CC2CC2)CC[C@]314 [naltrindole]	66 nM			1.4 nM	5.6 nM	0.5 nM					similar	0.25 nM
